Reference: patent US9901611B2 (Molecular Defenses Corporation, priority 2015, dated 2018)
Like-named read-outs stand apart in the source and are kept apart here.

Tests used:
[1] = tested on: mouse cytotoxic T-lymphocytes; settings: i.p. injection on the third day post immunization; cited from earlier work
[2] = far advanced AIDS
From the text: A clinical study on far advanced AIDS patients who had exhausted the HAART combinations and averaged 300,000 copies (HIV RNA PCR) and 50 CD4+ cells/per cubic mm.

[3] = human, in vivo, iv; cited from earlier work
[4] = cited from earlier work
HIV = settings: U1 cells, in the absence of cytotoxic or cytostatic effects; cited from earlier work
[5] = in vivo, po; for share absorbed and intracellular: 1.5 hours
From the text: It would be possible to follow the two groups and to compare the rates of progression to determine statistically significant differences.

[6] = tested on: high-affinity component of mitochondrial GSH transport; settings: stimulated by ATP; cited from earlier work
[7] = 5 g oral per day, two female patients who survived 1 year; cited from earlier work
[8] = 1,200 mg/day i.v., compared to baseline; cited from earlier work
[9] = infusion 10 mg/min for 120 min, cited from earlier work
[10] = Phase I/II clinical trial of oral GSH in HIV positive patients, PBMC intracellular GSH; assay type: in vivo, human
From the text: Early clinical trials determined the pharmacokinetics of absorption and intracellular distribution in Peripheral Blood Mononuclear Cells in asymptomatic HIV (+) patients, using three doses of 1 gm, 2 gms and 3 gms/day over a 4 week period, with two weeks of baselines, plus two weeks of post drug exposure.

HIV-1 = settings: in vitro, cited from earlier work
microglial cells = settings: microglia, NO and superoxide generated simultaneously; cited from earlier work
[11] = mouse, GSH pretreatment; cited from earlier work
[12] = rat, i.v. bolus, cited from earlier work
HIV-1 LTR = settings: Jurkat cells, synergistic induction by TNFα and Tat; cited from earlier work
[13] = rats, LPS; cited from earlier work
[14] = asymptomatic HIV (+) patients, 1, 2 and 3 gms/day
[15] = high end of dose range 50-300 mmol/kg
[16] = low end of dose range 50-300 mmol/kg

## N[C@@H](CCC(=O)N[C@@H](CS)C(=O)NCC(=O)O)C(=O)O [GSH, gamma-glutamyl-cysteinyl-glycine]
[1]
  augmentation of cytotoxic activity: 5 fold
[2]; 75 mg/kg in two divided doses, four patients who followed the regimen
  survival after starting on GSH: 3 years
[2]; four patients
  CD4+ cell counts: did not restore their CD4+ cell counts to any extent
[3]
  half-life: 14.1 ± 9.2 min
[4]; 1,844 mg i.v. bolus, hypertensive patients and non-hypertensive diabetics, within ten minutes
  systolic and diastolic blood pressure: rapid and significant decrease
[4]; 3,699 mg dose, normal subjects
  blood pressure values: significant decrease
HIV
  induction of HIV expression mediated by PMA, TNF-α or IL-6: suppressed in a dose-dependent fashion
[5]; human
  share absorbed and intracellular: 70-80%
[5]
  toxicities: no significant toxicities
  share absorbed and intracellular: 80%
[6]
  Km: ~60 µM
  V max: approximately 0.5 nM/min per mg of protein
[7]
  tumor growth: regression or stagnation of their tumor growth
[8]
  hematologic parameters (hematocrit, hemoglobin, blood count): significantly increase
[9]
  insulin clearance and action: No effect was seen
[9]; patients with IGT
  glucose-induced insulin secretion: significantly potentiated
[10]; 1 gm, 2 gms and 3 gms/day
  relation of dose to PBMC GSH: dose response relationship
[10]; [14]
  completion of absorption and distribution within the PBMC: 60 min
  start of absorption and distribution within the PBMC after ingestion: 30 min
[10]; asymptomatic HIV (+) patients, 4 week period
  toxicities: no evidence of toxicities
HIV-1; intracellular GSH in infected monocytes raised to the high end of the normal range
  duration of suppression of HIV production: about 35 days
HIV-1; single pulse exposure
  HIV-1 p24 antigen levels and reverse transcriptase activity: sustained, concentration-dependent decrease
Microglial cells
  peroxynitrite formation: significantly decreased
[11]
  morphine-induced lethality: protects against morphine-induced lethality
[12]; [15]
  apparent volume of distribution: 1.33 L/kg
  half-life of the elimination phase: 11.4 min
  rate constant for drug elimination and plasma clearance: 2.44 mL/min
[12]; [16]
  apparent volume of distribution: 3.78 L/kg
  half-life of the elimination phase: 52.4 min
  rate constant for drug elimination and plasma clearance: 0.84 mL/min

## CC(=O)N[C@@H](CS)C(=O)O [NAC, N-acetyl-L-cysteine]
HIV
  induction of HIV expression mediated by PMA, TNF-α or IL-6: suppressed in a dose-dependent fashion
HIV-1 LTR
  HIV-1 LTR-mediated gene expression: significantly suppressed
[13]
  decrease of lung lavage neutrophil count: six fold

## N/C(=N\O)c1cc(O)c(O)c(O)c1 [TD, Trimidox]
HIV-1 LTR
  HIV-1 LTR-mediated gene expression: significantly suppressed

## GSH ester [GSE]
HIV
  induction of HIV expression mediated by PMA, TNF-α or IL-6: suppressed in a dose-dependent fashion
